Test results published in paper PMC9851200, “Multiparameter phenotypic screening for endogenous TFEB and TFE3 translocation identifies novel chemical series modulating lysosome function” (Autophagy, 2022).

What was measured:
Type in all cases: binding
[1] = molecular target: kinases (KINOMEscan panel) (Homo sapiens, UniProt P17948); details: kinase FLT1; NEW KINOMEscan
[2] = molecular target: kinases (KINOMEscan panel) (Homo sapiens, UniProt P21802); details: kinase FGFR2; NEW KINOMEscan
[3] = molecular target: kinases (KINOMEscan panel) (Homo sapiens, UniProt Q96GD4); details: kinase AURKB; NEW KINOMEscan
[4] = molecular target: kinases (KINOMEscan panel) (Homo sapiens, UniProt Q9BYT3); details: kinase STK33; NEW KINOMEscan
[5] = molecular target: T1, kinases (KINOMEscan panel) (Homo sapiens, UniProt Q9C098); details: kinase DCLK3; NEW KINOMEscan
T1 sequence (Q9C098 1-648): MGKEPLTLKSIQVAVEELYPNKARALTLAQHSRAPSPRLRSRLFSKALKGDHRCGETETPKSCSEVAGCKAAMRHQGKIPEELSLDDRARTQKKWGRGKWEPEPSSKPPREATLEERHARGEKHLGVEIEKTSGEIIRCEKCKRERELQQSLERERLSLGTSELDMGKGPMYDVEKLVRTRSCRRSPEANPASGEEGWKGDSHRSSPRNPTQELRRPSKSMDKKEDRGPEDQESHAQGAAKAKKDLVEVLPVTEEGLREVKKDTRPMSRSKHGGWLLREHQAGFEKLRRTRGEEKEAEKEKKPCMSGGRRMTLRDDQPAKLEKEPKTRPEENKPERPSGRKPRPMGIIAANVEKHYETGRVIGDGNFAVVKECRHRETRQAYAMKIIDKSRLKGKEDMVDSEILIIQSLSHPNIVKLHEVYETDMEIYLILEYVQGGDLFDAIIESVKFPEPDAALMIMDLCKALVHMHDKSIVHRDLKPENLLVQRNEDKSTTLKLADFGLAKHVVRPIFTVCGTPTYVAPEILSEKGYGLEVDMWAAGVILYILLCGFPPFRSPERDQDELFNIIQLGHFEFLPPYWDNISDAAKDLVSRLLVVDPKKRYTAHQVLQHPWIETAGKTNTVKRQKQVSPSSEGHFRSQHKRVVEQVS

[6] = molecular target: T2, kinases (KINOMEscan panel) (Homo sapiens, UniProt Q9NRM7); details: NEW KINOMEscan
T2 sequence (Q9NRM7 1-1088): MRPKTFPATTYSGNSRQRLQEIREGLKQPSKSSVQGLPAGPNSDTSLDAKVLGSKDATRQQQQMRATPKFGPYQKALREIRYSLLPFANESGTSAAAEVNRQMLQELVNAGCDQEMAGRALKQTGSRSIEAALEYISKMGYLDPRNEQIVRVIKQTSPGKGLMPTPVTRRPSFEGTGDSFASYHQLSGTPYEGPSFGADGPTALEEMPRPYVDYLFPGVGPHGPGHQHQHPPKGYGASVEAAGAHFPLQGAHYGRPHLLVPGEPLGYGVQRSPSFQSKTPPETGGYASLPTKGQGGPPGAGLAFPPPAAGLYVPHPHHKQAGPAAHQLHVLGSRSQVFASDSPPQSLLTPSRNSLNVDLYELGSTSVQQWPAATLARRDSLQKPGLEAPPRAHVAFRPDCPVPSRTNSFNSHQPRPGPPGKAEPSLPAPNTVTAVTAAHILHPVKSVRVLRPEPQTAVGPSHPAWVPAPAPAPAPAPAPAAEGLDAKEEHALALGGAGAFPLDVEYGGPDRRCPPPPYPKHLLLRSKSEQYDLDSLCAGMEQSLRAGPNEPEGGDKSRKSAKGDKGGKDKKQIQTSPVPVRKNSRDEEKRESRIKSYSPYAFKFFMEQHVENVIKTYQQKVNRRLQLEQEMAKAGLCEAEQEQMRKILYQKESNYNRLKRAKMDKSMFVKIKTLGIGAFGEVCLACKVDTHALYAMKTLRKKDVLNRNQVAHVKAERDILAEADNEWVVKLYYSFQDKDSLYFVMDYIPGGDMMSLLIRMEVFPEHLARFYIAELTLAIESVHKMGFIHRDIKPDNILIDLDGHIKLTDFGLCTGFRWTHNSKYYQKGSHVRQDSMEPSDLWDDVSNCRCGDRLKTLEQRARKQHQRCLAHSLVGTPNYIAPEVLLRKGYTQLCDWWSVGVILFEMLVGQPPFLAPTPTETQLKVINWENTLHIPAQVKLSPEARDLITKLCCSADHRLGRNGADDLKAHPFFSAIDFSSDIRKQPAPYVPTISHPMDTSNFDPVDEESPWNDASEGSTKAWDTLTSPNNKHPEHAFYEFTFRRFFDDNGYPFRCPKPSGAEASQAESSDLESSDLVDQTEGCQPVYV

[7] = molecular target: kinases (KINOMEscan panel) (Homo sapiens, UniProt Q9P0L2); details: NEW KINOMEscan
kinases (KINOMEscan panel) (Homo sapiens, UniProt Q9P0L2), sequence (Q9P0L2 whole entry): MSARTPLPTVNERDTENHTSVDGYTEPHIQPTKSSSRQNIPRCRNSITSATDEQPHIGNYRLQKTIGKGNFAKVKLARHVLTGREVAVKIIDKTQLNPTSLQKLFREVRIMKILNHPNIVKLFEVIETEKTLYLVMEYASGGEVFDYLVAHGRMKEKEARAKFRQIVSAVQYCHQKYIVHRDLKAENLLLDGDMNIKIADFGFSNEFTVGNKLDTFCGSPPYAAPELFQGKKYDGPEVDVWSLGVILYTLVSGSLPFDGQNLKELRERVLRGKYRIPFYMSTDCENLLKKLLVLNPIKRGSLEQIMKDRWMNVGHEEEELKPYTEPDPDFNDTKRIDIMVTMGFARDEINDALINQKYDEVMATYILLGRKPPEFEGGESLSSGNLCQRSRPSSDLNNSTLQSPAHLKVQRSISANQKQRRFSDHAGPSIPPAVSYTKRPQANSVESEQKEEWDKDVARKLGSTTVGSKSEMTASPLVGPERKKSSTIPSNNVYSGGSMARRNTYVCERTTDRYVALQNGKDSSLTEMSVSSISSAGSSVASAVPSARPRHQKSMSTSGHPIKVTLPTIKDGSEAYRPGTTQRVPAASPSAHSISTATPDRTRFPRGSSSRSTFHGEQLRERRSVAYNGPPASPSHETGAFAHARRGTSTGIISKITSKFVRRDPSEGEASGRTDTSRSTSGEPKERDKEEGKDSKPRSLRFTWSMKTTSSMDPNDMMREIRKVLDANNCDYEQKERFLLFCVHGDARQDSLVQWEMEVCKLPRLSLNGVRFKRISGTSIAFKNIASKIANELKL

kinases (KINOMEscan panel) (Homo sapiens, UniProt Q9BYT3), sequence (Q9BYT3 whole entry): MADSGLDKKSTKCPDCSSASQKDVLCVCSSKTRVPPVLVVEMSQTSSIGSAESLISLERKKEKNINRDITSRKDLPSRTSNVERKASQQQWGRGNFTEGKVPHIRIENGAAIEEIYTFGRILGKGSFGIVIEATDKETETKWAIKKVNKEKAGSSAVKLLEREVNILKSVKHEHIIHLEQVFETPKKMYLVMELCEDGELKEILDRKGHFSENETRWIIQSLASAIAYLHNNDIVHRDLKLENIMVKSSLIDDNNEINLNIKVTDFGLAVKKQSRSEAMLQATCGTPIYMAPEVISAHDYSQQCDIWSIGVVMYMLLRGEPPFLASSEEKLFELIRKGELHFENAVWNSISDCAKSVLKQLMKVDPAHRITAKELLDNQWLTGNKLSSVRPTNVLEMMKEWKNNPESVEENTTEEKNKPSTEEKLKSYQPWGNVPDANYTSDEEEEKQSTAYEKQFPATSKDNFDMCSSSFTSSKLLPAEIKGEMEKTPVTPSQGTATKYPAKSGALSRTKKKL
kinases (KINOMEscan panel) (Homo sapiens, UniProt Q96GD4), sequence (Q96GD4 whole entry): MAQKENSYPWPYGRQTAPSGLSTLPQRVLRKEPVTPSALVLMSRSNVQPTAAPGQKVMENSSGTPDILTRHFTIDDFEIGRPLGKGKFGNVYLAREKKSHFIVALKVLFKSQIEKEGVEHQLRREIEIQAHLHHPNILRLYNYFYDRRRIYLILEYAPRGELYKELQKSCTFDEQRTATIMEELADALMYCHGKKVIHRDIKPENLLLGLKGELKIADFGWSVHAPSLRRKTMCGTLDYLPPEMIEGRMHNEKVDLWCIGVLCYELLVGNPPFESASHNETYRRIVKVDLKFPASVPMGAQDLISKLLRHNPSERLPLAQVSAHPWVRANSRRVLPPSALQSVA
kinases (KINOMEscan panel) (Homo sapiens, UniProt P17948), sequence (P17948 27-1338): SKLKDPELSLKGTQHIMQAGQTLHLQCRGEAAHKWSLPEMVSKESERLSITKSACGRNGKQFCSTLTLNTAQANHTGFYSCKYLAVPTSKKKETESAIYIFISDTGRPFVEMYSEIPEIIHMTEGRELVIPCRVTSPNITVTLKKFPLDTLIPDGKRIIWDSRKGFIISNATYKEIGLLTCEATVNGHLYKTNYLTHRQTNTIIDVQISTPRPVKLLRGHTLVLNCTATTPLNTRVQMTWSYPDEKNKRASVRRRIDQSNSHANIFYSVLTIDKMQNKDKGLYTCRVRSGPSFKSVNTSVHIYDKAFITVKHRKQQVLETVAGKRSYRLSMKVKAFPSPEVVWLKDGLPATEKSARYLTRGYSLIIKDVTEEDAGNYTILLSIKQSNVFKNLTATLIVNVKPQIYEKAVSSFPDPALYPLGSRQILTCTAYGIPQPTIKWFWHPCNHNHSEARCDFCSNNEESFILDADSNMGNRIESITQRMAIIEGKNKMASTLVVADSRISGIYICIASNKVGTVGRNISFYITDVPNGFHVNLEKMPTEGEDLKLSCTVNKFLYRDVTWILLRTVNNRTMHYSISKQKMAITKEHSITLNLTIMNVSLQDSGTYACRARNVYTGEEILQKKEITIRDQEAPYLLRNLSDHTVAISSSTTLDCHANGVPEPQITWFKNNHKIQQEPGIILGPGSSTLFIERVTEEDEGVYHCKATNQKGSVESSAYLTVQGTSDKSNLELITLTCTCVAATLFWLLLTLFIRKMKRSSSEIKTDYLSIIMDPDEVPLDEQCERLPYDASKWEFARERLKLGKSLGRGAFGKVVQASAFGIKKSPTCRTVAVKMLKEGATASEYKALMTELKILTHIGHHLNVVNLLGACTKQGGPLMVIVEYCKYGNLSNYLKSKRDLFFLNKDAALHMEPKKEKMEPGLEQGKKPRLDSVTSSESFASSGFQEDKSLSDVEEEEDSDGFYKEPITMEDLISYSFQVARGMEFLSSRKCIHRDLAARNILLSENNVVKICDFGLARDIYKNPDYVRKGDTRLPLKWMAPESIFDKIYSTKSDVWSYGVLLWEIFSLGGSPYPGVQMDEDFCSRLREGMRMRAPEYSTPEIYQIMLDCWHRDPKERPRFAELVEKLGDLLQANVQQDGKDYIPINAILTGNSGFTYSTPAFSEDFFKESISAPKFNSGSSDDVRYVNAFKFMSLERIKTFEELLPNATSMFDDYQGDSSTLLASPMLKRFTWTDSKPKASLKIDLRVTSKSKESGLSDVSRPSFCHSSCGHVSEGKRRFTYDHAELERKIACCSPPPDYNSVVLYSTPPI
kinases (KINOMEscan panel) (Homo sapiens, UniProt P21802), sequence (P21802 22-821): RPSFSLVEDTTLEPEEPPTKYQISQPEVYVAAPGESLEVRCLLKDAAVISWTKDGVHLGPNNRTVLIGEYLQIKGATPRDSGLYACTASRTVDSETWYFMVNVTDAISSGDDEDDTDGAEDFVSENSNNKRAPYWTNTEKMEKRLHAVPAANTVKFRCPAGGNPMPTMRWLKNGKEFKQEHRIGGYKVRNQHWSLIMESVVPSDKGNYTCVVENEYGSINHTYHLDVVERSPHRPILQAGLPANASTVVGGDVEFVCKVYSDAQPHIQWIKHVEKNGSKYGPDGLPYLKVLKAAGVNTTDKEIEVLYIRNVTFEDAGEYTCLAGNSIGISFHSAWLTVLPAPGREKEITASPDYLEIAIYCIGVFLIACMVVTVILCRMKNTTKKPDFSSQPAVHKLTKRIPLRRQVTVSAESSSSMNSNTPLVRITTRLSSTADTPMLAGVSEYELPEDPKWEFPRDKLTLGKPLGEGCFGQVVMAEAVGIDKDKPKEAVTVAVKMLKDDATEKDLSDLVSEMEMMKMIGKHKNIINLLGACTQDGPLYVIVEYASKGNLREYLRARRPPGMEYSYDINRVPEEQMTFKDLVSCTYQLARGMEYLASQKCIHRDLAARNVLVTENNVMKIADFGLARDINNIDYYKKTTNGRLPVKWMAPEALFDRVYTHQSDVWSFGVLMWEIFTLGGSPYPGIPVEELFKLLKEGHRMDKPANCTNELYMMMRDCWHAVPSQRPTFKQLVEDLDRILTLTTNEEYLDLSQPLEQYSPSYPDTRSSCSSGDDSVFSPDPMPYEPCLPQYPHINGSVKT

Row | Structure (SMILES) | KINOMEscan FLT1 [1] | KINOMEscan FGFR2 [2] | KINOMEscan AURKB [3] | KINOMEscan STK33 [4] | KINOMEscan DCLK3 [5] | KINOMEscan LATS2 [6] | KINOMEscan MARK1 [7]
1 | Cc1cccc(-c2nc(Nc3ccc4nn(C)cc4c3)c3ccccc3n2)n1 [NK167] | 4 | 0 | 0 | 0 | 10 | 19 | 21
2 | Cc1cccc(-c2nc(N(C)c3ccc4ncsc4c3)c3ccccc3n2)n1 [NK-161] | 12 | 9 | 0 | 0 | 14 | 26 | 13
